In patent US8901118B2, “Compounds and methods for kinase modulation, and indications therefor” (Plexxikon Inc., priority 2010, dated 2014):

How the values were obtained:
Fms kinase = Fms kinase (Homo sapiens, UniProt P07333); experiment: Fms kinase biochemical activity assay (AlphaScreen, biotin-(E4Y)10 phosphorylation); conditions: 100 μM ATP; read-out: Biochemical Inhibition IC50 Fms
Procedure: In one assay the biochemical activity IC50 values are determined with respect to inhibition of Fms kinase activity, where inhibition of phosphorylation of a peptide substrate is measured as a function of compound concentration. Compounds to be tested, dissolved in DMSO (1 μL), are added to a white 384-well plate (Costar #3705). Working stocks of Fms kinase (Invitrogen #PV3249), biotin-(E4Y)10 substrate (Upstate Biotech, Cat#12-440), and ATP (Sigma, Cat#A-3377) are prepared in 25 mM Hepes pH 7.5, 0.5 mM MgCl2, 2 mM MnCl2, 2 mM DTT, 0.01% BSA, and 0.01% Tween-20. All components are added to the 384-well plate for a final concentration of 1 ng/well Fms, 30 nM biotin-(E4Y)10 (Upstate Biotechnology) and 100 μM ATP in a volume of 20 μL. Each sample is at 5% DMSO. The plate is then incubated for 20 minutes at 30° C. Just before use, working stocks of donor and acceptor beads from the AlphaScreen PY20 Detection Kit (PerkinElmer, Cat#676601M) are prepared in 25 mM Hepes pH 7.5, pH 7.4, 100 mM EDTA, 0.01% BSA. To stop the reaction, the plate is uncovered in the dark and 5 μL of Donor Beads solution (Streptavidin beads) is added to each well. The plate is incubated at room temperature for 20 minutes. Five microliters of Acceptor Beads solution (PY20 coated beads) are then added to each well. The final concentration of each bead is 10 μg/mL. The plates are incubated at room temperature for 60 minutes. Fluorescence signal is recorded on the Envision reader. Phosphorylated substrate results in binding of the PY20 antibody and association of the donor and acceptor beads such that signal correlates with kinase activity. The signal vs. compound concentration is used to determine the IC50.

c-Kit kinase = c-Kit kinase (Homo sapiens, UniProt P10721); experiment: c-Kit kinase biochemical activity assay (AlphaScreen, biotin-(E4Y)10 phosphorylation); conditions: 100 μM ATP; read-out: Biochemical Inhibition IC50 Kit
Procedure: Assays for biochemical and cell based activity are known in the art, for example, U.S. Patent Application Publication Number 2009/0076046, the disclosure of which is hereby incorporated by reference as it relates to such assays. For example, in one assay the biochemical activity IC50 values are determined with respect to inhibition of c-Kit kinase activity, where inhibition of phosphorylation of a peptide substrate is measured as a function of compound concentration. Compounds to be tested are dissolved in DMSO to a concentration of 20 mM. These are diluted 30 μL into 120 μL of DMSO (4 mM) and 1 μL is added to an assay plate. These are then serially diluted […] (50 μL to 100 μL DMSO) for a total of 8 points. Plates are prepared such that each kinase reaction is 20 μL in 1× kinase buffer (25 mM HEPES, pH 7.5, 2 mM MgCl2, 2 mM MnCl2, 0.01% Tween-20, 1 mM DTT, 0.01% BSA), 5% DMSO and 100 μM ATP. Substrate is 30 nM biotin-(E4Y) 10 (Millipore). C-kit kinase (obtained from Millipore (#14-559) or is prepared as described in U.S. Patent Application Publication Number 2009/0076046, the disclosure of which is hereby incorporated by reference as it relates to this assay) is at 0.75 ng per sample. After incubation of the kinase reaction for 1 hour at room temperature, 5 μL of donor beads (Streptavidin coated beads (Perkin Elmer Life Science) final concentration 10 μg/mL) in stop buffer (25 mM Hepes pH 7.5, 100 mM EDTA, 0.01% BSA) is added, the sample is mixed and incubated for 20 minutes at room temperature before adding 5 μL of acceptor beads (PY20 coated beads (Perkin Elmer Life Science) final concentration 10 μg/mL) in stop buffer. The samples are incubated for 60 minutes at room temperature and the signal per well is read on Envision reader. Phosphorylated substrate results in binding of the PY20 antibody and association of the donor and acceptor beads such that signal correlates with kinase activity. The signal vs. compound concentration is used to determine the IC50.

CYP2C19 = CYP2C19 (Homo sapiens, UniProt P33261); experiment: CYP2C19 inhibition (fluorescent substrate CEC); format: in vitro ADME; conditions: read-out: Cyp IC50 2C19
Procedure: (§1) CYP (Cytochrome P450) enzymes are the major drug metabolizing enzymes present in the liver. The inhibition of CYP enzyme activity (IC50) for each of CYP1A2, CYP2C19, CYP2C9, CYP2D6, CYP3A4(BFC) and CYP3A4(BQ) is determined for compounds, where inhibition of metabolism of a known substrate leads to a decrease in the fluorescence of the metabolized product. The fluorescence of the product is monitored as a function of compound concentration. Compounds are dissolved in DMSO to a concentration of 100 mM. These are diluted 1 μL into 82 μL of acetonitrile. An 11 μL aliquot of this solution is then added to 204 μL of cofactor mix (1.3% NADPH Regeneration system Solution A, 1.04% NADPH Regeneration system Solution B from BD Biosciences, 5% acetonitrile and 0.05% DMSO). These are then serially diluted 1:1 (160 μL to 160 μL co-factor mix) for a total of 10 points. A 10 μL aliquot of this final mixture is dispensed into 384 well assay plates and incubated for 10 minutes at 37° C. […] Assay plates are incubated at 37° C. (CYP1A2-15 min; CYP2C9-45 min; CYP2C19, 2D6 and 3A4-30 min) and read in a Tecan Safire 2 plate reader (CYP1A2, 2C19 and 3A4 409 ex/460 em; CYP2C9 and 2D6 409 ex/530 em). The signal versus compound concentration is used to determine the IC50. The enzymes and substrates for this assay are obtained from BD Biosciences.

CYP3A4(BFC) = CYP3A4(BFC) (Homo sapiens, UniProt P08684); experiment: CYP3A4(BFC) inhibition; format: in vitro ADME; conditions: CYP3A4, substrate BFC; read-out: Cyp IC50 3A4(BFC)
Procedure: as §1

CYP2C19, sequence (P33261 whole entry): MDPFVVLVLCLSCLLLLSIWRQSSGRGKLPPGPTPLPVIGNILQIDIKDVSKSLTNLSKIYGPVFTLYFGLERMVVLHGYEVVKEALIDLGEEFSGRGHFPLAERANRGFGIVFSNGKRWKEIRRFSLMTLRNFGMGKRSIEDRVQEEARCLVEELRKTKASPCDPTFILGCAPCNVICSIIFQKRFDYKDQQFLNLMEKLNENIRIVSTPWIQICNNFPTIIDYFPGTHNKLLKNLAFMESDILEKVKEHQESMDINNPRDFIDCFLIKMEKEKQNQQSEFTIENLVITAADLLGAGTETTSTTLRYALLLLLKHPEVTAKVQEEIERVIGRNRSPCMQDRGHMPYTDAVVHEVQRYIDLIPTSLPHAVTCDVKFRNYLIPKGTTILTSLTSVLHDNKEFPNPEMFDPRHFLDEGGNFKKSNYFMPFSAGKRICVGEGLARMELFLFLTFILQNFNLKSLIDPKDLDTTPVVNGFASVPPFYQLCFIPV
c-Kit kinase, sequence (P10721 26-976): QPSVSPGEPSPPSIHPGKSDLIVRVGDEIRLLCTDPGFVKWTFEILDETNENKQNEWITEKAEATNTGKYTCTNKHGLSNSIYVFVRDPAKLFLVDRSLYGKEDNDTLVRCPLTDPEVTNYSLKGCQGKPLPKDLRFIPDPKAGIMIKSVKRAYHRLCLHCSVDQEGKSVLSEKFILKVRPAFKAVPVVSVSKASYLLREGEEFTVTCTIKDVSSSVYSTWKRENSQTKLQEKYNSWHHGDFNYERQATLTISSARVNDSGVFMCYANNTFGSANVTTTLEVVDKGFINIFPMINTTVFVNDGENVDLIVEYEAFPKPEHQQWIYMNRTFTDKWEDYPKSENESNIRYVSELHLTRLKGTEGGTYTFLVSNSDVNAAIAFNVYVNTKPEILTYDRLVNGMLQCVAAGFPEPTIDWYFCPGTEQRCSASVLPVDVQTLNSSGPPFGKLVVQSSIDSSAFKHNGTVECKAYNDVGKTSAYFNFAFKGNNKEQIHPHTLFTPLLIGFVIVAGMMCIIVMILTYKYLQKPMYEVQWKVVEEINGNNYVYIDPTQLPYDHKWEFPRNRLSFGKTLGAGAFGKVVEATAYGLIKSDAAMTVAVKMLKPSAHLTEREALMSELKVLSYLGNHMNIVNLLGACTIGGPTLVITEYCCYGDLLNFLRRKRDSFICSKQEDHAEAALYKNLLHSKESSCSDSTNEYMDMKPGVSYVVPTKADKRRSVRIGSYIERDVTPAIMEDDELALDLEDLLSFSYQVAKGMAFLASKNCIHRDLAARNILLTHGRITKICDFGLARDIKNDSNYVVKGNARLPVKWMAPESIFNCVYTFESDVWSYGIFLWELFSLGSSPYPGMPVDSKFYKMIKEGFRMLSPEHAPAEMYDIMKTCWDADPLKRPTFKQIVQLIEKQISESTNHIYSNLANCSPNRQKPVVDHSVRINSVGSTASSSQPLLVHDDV
Fms kinase, sequence (P07333 20-972): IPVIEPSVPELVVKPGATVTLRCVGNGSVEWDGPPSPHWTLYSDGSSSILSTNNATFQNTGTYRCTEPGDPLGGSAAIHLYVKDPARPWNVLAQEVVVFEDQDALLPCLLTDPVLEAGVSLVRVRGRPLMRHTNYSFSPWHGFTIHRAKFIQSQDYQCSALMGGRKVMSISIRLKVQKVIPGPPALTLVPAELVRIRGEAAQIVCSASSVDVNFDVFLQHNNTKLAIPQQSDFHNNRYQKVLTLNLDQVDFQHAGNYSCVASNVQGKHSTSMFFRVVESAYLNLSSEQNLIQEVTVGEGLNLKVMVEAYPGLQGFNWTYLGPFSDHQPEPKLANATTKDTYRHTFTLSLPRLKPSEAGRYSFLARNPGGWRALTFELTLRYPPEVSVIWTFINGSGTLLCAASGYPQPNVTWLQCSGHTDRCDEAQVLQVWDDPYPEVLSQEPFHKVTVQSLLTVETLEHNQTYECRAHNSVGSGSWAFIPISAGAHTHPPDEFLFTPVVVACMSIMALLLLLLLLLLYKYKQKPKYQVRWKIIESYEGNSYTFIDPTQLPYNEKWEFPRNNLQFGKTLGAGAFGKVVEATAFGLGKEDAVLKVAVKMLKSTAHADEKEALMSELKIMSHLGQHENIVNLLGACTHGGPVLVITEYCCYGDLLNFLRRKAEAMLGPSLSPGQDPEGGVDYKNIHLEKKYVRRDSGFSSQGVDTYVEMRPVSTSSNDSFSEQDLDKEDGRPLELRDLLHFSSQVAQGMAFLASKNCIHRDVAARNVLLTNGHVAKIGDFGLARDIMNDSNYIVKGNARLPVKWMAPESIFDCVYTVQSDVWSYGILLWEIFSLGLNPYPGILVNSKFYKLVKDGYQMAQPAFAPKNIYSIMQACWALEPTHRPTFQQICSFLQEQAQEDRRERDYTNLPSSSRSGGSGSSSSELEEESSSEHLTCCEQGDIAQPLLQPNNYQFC
CYP3A4(BFC), sequence (P08684 whole entry): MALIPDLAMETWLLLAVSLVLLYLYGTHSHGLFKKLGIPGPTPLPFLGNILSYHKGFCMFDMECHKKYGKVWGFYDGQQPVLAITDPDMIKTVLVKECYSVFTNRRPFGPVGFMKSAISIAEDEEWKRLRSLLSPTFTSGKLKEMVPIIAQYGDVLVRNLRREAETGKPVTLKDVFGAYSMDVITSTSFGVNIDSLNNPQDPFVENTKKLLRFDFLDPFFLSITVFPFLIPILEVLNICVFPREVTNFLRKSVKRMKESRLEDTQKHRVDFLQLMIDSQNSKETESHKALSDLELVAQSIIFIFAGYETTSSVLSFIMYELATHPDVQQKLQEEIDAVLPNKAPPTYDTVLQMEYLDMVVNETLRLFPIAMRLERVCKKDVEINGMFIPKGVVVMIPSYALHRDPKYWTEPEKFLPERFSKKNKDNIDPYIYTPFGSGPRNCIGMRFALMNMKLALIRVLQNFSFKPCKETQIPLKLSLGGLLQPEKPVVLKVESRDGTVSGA

Structure (SMILES)	IC50 (Fms kinase) [nM]	IC50 (c-Kit kinase) [nM]	IC50 (CYP2C19) [nM]	IC50 (CYP3A4(BFC)) [nM]
COc1ccc(Nc2ccc(C(=O)c3c[nH]c4ncnc(NCC(F)(F)F)c34)c(F)n2)cn1 [Compound P-4084, [2-fluoro-6-[(6-methoxy-3-pyridyl)amino]-3-pyridyl]-[4-(2,2,2-trifluoroethylamino)-7H-pyrrolo[2,3-d]pyrimidin-5-yl]methanone]	< 10	< 100	5000 to 10000	> 10000
CCCNc1ncnc2[nH]cc(C(=O)c3ccc(Nc4cncc(OC)c4)nc3F)c12 [Compound P-4105, [2-fluoro-6-[(5-methoxy-3-pyridyl)amino]-3-pyridyl]-[4-(propylamino)-7H-pyrrolo[2,3-d]pyrimidin-5-yl]methanone]	< 100	> 1000	> 10000	> 10000
CNc1ncnc2[nH]cc(C(=O)c3ccc(Nc4ccc(OC)nc4)nc3OC)c12 [Compound P-4085, [2-methoxy-6-[(6-methoxy-3-pyridyl)amino]-3-pyridyl]-[4-(methylamino)-7H-pyrrolo[2,3-d]pyrimidin-5-yl]methanone]	< 10	< 1000		
CC1CCC(Nc2ncc(Cc3c[nH]c4ncc(Cl)cc34)cn2)CC1 (stereo not shown) [Compound P-3009, [5-(5-Chloro-1H-pyrrolo[2,3-b]pyridin-3-ylmethyl)-pyrimidin-2-yl]-(4-methyl-cyclohexyl)-amine]	< 100		< 5000	5000 to 10000
Fc1ccccc1Nc1ncc(Cc2c[nH]c3ncc(Cl)cc23)cn1 [Compound P-3014, [5-(5-Chloro-1H-pyrrolo[2,3-b]pyridin-3-ylmethyl)-pyrimidin-2-yl]-(2-fluoro-phenyl)-amine]	< 10	< 100		
CCc1ccc(Nc2ccc(C(=O)c3c[nH]c4ncnc(Nc5ccc(C)nc5)c34)c(F)n2)cn1 [Compound P-4086, [6-[(6-ethyl-3-pyridyl)amino]-2-fluoro-3-pyridyl]-[4-[(6-methyl-3-pyridyl)amino]-7H-pyrrolo[2,3-d]pyrimidin-5-yl]methanone]	< 1000	< 1000		
Clc1cnc2[nH]cc(Cc3cnc(Nc4ccccc4Cl)nc3)c2c1 [Compound P-3015, (2-Chloro-phenyl)-[5-(5-chloro-1H-pyrrolo[2,3-b]pyridin-3-ylmethyl)-pyrimidin-2-yl]-amine]	< 10	< 1000		

The remaining lines, values ahead:

IC50 (Fms kinase) [nM]	IC50 (c-Kit kinase) [nM]	IC50 (CYP2C19) [nM]	IC50 (CYP3A4(BFC)) [nM]	Structure (SMILES)
< 100	< 1000	< 5000	> 10000	CCc1ccc(Nc2ccc(C(=O)c3c[nH]c4ncnc(NC5CCC(F)(F)CC5)c34)c(F)n2)cn1 [Compound P-4096, [4-[(4,4-difluorocyclohexyl)amino]-7H-pyrrolo[2,3-d]pyrimidin-5-yl]-[6-[(6-ethyl-3-pyridyl)amino]-2-fluoro-3-pyridyl]methanone]
< 10	< 100	< 5000	> 10000	CNc1ncnc2[nH]cc(C(=O)c3ccc(Nc4ccc(C(F)(F)F)nc4)nc3F)c12 [Compound P-4092, [2-fluoro-6-[[6-(trifluoromethyl)-3-pyridyl]amino]-3-pyridyl]-[4-(methylamino)-7H-pyrrolo[2,3-d]pyrimidin-5-yl]methanone]
< 10	< 100	> 10000	> 10000	COc1ccc(Nc2ccc(C(=O)c3c[nH]c4ncnc(NC(C)C)c34)c(F)n2)cn1 [Compound P-4066, [2-fluoro-6-[(6-methoxy-3-pyridyl)amino]-3-pyridyl]-[4-(isopropylamino)-7H-pyrrolo[2,3-d]pyrimidin-5-yl]methanone]
< 100	< 1000	< 5000	> 10000	CNc1ncnc2[nH]cc(C(=O)c3ccc(NC4CCCCC4)nc3F)c12 [Compound P-4102, [6-(cyclohexylamino)-2-fluoro-3-pyridyl]-[4-(methylamino)-7H-pyrrolo[2,3-d]pyrimidin-5-yl]methanone]
< 100	< 100	< 5000	> 10000	CCCCNc1ncnc2[nH]cc(C(=O)c3ccc(Nc4ccc(CC)nc4)nc3F)c12 [Compound P-4100, [4-(butylamino)-7H-pyrrolo[2,3-d]pyrimidin-5-yl]-[6-[(6-ethyl-3-pyridyl)amino]-2-fluoro-3-pyridyl]methanone]
< 100	< 1000	5000 to 10000	> 10000	CC(C)Nc1ncnc2[nH]cc(C(=O)c3ccc(NC4CCCCC4)nc3Cl)c12 [Compound P-4109, [2-chloro-6-(cyclohexylamino)-3-pyridyl]-[4-(isopropylamino)-7H-pyrrolo[2,3-d]pyrimidin-5-yl]methanone]
< 100	< 100	> 10000	> 10000	O=C(c1ccc(NC2CCC(F)(F)CC2)nc1)c1c[nH]c2ncnc(NCC(F)(F)F)c12 [Compound P-4087, [6-[(4,4-difluorocyclohexyl)amino]-3-pyridyl]-[4-(2,2,2-trifluoroethylamino)-7H-pyrrolo[2,3-d]pyrimidin-5-yl]methanone]
< 1000	> 1000	5000 to 10000	5000 to 10000	COc1ccc(Nc2ccc(C(=O)c3c[nH]c4ncnc(N5CCCCC5)c34)c(F)n2)cn1 [Compound P-4069, [2-fluoro-6-[(6-methoxy-3-pyridyl)amino]-3-pyridyl]-[4-(1-piperidyl)-7H-pyrrolo[2,3-d]pyrimidin-5-yl]methanone]
< 10	< 100	> 10000	> 10000	CCNc1ncnc2[nH]cc(C(=O)c3ccc(Nc4ccc(OC)nc4)nc3F)c12 [Compound P-4081, [4-(ethylamino)-7H-pyrrolo[2,3-d]pyrimidin-5-yl]-[2-fluoro-6-[(6-methoxy-3-pyridyl)amino]-3-pyridyl]methanone]
